Experimental data published in patent US8481544B2, “Antibacterial compositions” (Biota Europe Limited, priority 2006, dated 2013).
Converted amounts (≈) assume the structure as drawn.

tested on: Enterococcus faecalis ATCC 29212; assay: MIC against Enterococcus faecalis ATCC 29212; assay type: cell-based; settings: ATCC29212; Enterococcus faecalis ATCC 29212; read-out: MICs against Enterococcus faecalis, Activity
Method in brief: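 MIC measured by broth microdilution or agar dilution following CLSI guidelines (M7-A7 for aerobes, M11-A6 for anaerobes).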

Structure (SMILES)	MIC [mg/L]
CCNC(=O)Nc1nc2cc(-c3cccnc3)cc(-c3cncs3)c2s1 [Example 161, 1-Ethyl-3-(5-pyridin-3-yl-7-thiazol-5-yl-benzothiazol-2-yl)-urea]	< 0.25
CCNC(=O)Nc1nc2cc(-c3cnc(C#N)nc3)cc(-c3cccnc3)c2s1 [Example 32, 1-[5-(2-Cyano-pyrimidin-5-yl)-7-pyridin-3-yl-benzothiazol-2-yl]-3-ethyl-urea]	2 to 16 (≈ 4.98 to 39.9 µM)
CCNC(=O)Nc1nc2cc(-c3cccnc3)cc(-c3nccs3)c2s1 [Example 92, 1-Ethyl-3-(5-pyridin-3-yl-7-thiazol-2-yl-benzothiazol-2-yl)-urea]	< 0.25
CCNC(=O)Nc1nc2cc(-c3cccnc3)cc(-c3ncccc3N)c2s1 [Example 94, 1-[7-(3-Amino-pyridin-2-yl)-5-pyridin-3-yl-benzothiazol-2-yl]-3-ethyl-urea]	2 to 16 (≈ 5.12 to 41 µM)
CCNC(=O)Nc1nc2cc(-c3ccc(CNC)nc3)cc(-c3ccccn3)c2s1 [Example 67, 1-Ethyl-3-[5-(6-methylaminomethyl-pyridin-3-yl)-7-pyridin-2-yl-benzothiazol-2-yl]-urea]	0.25 to 1 (≈ 0.597 to 2.39 µM)
CCNC(=O)Nc1nc2cc(-c3cnccc3C)cc(-c3ccccn3)c2s1 [Example 39, 1-Ethyl-3-[5-(4-methyl-pyridin-3-yl)-7-pyridin-2-yl-benzothiazol-2-yl]-urea]	0.25 to 1 (≈ 0.642 to 2.57 µM)
CCNC(=O)Nc1nc2cc(-c3cccnc3)cc(-c3nccc(N)n3)c2s1 [Example 110, 1-[7-(4-Amino-pyrimidin-2-yl)-5-pyridin-3-yl-benzothiazol-2-yl]-3-ethyl-urea]	< 0.25
CCNC(=O)Nc1nc2cc(-c3ccc(CO)cc3)cc(-c3cccnc3)c2s1 [Example 18, 1-Ethyl-3-[5-(4-hydroxymethyl-phenyl)-7-pyridin-3-yl-benzothiazol-2-yl]-urea]	2 to 16 (≈ 4.94 to 39.6 µM)
CCNC(=O)Nc1nc2cc(-c3ccc(C)nn3)cc(-c3cccnc3)c2s1 [Example 46, 1-Ethyl-3-[5-(6-methyl-pyridazin-3-yl)-7-pyridin-3-yl-benzothiazol-2-yl]-urea]	2 to 16 (≈ 5.12 to 41 µM)
CCNC(=O)Nc1nc2cc(-c3cccnc3)cc(C(=O)OC)c2s1 [Example 151, 2-(3-Ethyl-ureido)-5-pyridin-3-yl-benzothiazole-7-carboxylic acid methyl ester]	0.25 to 1 (≈ 0.701 to 2.81 µM)
CCNC(=O)Nc1nc2cc(-c3cccnc3)cc(-c3cnc(N)nc3)c2s1 [Example 42, 1-[7-(2-Amino-pyrimidin-5-yl)-5-pyridin-3-yl-benzothiazol-2-yl]-3-ethyl-urea]	0.25 to 1 (≈ 0.639 to 2.55 µM)
CCNC(=O)Nc1nc2cc(-c3cccnc3)cc(-c3ccsc3)c2s1 [Example 77, 1-Ethyl-3-(5-pyridin-3-yl-7-thiophen-3-yl-benzothiazol-2-yl)-urea]	0.25 to 1 (≈ 0.657 to 2.63 µM)
CCNC(=O)Nc1nc2cc(-c3cncc(Cl)c3)cc(-c3cccnc3)c2s1 [Example 48, 1-[5-(5-Chloro-pyridin-3-yl)-7-pyridin-3-yl-benzothiazol-2-yl]-3-ethyl-urea]	0.25 to 1 (≈ 0.61 to 2.44 µM)
CCNC(=O)Nc1nc2cc(-c3cccnc3)cc(C(=O)NCC)c2s1 [Example 152, 2-(3-Ethyl-ureido)-5-pyridin-3-yl-benzothiazole-7-carboxylic acid ethylamide]	2 to 16 (≈ 5.41 to 43.3 µM)
CCNC(=O)Nc1nc2cc(-c3ccn(CCN4CCOCC4)c(=O)c3)cc(-c3ccccn3)c2s1 [Example 63, 1-Ethyl-3-{5-[1-(2-morpholin-4-yl-ethyl)-2-oxo-1,2-dihydro-pyridin-4-yl]-7-pyridin-2-yl-benzothiazol-2-yl}-urea]	0.25 to 1 (≈ 0.495 to 1.98 µM)
CCNC(=O)Nc1nc2cc(-c3cccnc3)cc(-c3cc(OC)ncn3)c2s1 [Example 122, 1-Ethyl-3-[7-(6-methoxy-pyrimidin-4-yl)-5-pyridin-3-yl-benzothiazol-2-yl]-urea]	< 0.25
CCNC(=O)Nc1nc2cc(-c3ccc(NC(C)=O)nc3)cc(-c3ccc(NC(C)=O)nc3)c2s1 [Example 148, N-{5-[7-(6-Acetylamino-pyridin-3-yl)-2-(3-ethyl-ureido)-benzothiazol-5-yl]-pyridin-2-yl}-acetamide]	0.25 to 1 (≈ 0.511 to 2.04 µM)
CCNC(=O)Nc1nc2cc(-c3cccnc3)cc(-c3nc(CO)cs3)c2s1 [Example 106, 1-Ethyl-3-[7-(4-hydroxymethyl-thiazol-2-yl)-5-pyridin-3-yl-benzothiazol-2-yl]-urea]	0.25 to 1 (≈ 0.608 to 2.43 µM)
CCNC(=O)Nc1nc2cc(-c3cnc(OC)nc3)cc(-c3cccnc3)c2s1 [Example 15, 1-Ethyl-3-[5-(2-methoxy-pyrimidin-5-yl)-7-pyridin-3-yl-benzothiazol-2-yl]-urea]	0.25 to 1 (≈ 0.615 to 2.46 µM)
CCNC(=O)Nc1nc2cc(-c3ccoc3)cc(-c3ccccn3)c2s1 [Example 37, 1-Ethyl-3-(5-furan-3-yl-7-pyridin-2-yl-benzothiazol-2-yl)-urea]	0.25 to 1 (≈ 0.686 to 2.74 µM)
CCNC(=O)Nc1nc2cc(-c3cccnc3)cc(-c3cccc(N(C)C)n3)c2s1 [Example 168, 1-[7-(6-Dimethylamino-pyridin-2-yl)-5-pyridin-3-yl-benzothiazol-2-yl]-3-ethyl-urea]	0.25 to 1 (≈ 0.597 to 2.39 µM)

Structure (SMILES)	MIC [mg/L]
CCNC(=O)Nc1nc2cc(-c3ccc(CO)nc3)cc(-c3cccnc3)c2s1 [Example 19, 1-Ethyl-3-[5-(6-hydroxymethyl-pyridin-3-yl)-7-pyridin-3-yl-benzothiazol-2-yl]-urea]	0.25 to 1 (≈ 0.617 to 2.47 µM)
CCNC(=O)Nc1nc2cc(-c3cncc(OC)c3)cc(-c3cncc(OC)c3)c2s1 [Example 143, 1-[5,7-Bis-(5-methoxy-pyridin-3-yl)-benzothiazol-2-yl]-3-ethyl-urea]	0.25 to 1 (≈ 0.574 to 2.3 µM)
C=CCc1cc(-c2cccnc2)cc2nc(NC(=O)NCC)sc12 [Example 156, 1-(7-Allyl-5-pyridin-3-yl-benzothiazol-2-yl)-3-ethyl-urea]	0.25 to 1 (≈ 0.739 to 2.95 µM)
CCNC(=O)Nc1nc2cc(-c3cccnc3)cc(-c3cccnc3F)c2s1 [Example 76, 1-Ethyl-3-[7-(2-fluoro-pyridin-3-yl)-5-pyridin-3-yl-benzothiazol-2-yl]-urea]	0.25 to 1 (≈ 0.635 to 2.54 µM)
CCNC(=O)Nc1nc2cc(-c3ccc4nccn4c3)cc(-c3cccnc3)c2s1 [Example 22, 1-Ethyl-3-(5-imidazo[1,2-a]pyridin-6-yl-7-pyridin-3-yl-benzothiazol-2-yl)-urea]	0.25 to 1 (≈ 0.603 to 2.41 µM)
CCNC(=O)Nc1nc2cc(-c3ccc(N)nc3)cc(-c3cccnc3)c2s1 [Example 17, 1-[5-(6-Amino-pyridin-3-yl)-7-pyridin-3-yl-benzothiazol-2-yl]-3-ethyl-urea]	0.25 to 1 (≈ 0.64 to 2.56 µM)
CCNC(=O)Nc1nc2cc(-c3cccnc3)cc(-c3sc(C)nc3C)c2s1 [Example 102, 1-[7-(2,4-Dimethyl-thiazol-5-yl)-5-pyridin-3-yl-benzothiazol-2-yl]-3-ethyl-urea]	0.25 to 1 (≈ 0.61 to 2.44 µM)
CCNC(=O)Nc1nc2cc(-c3cccnc3)cc(-c3ccccc3OC)c2s1 [Example 87, 1-Ethyl-3-[7-(2-methoxy-phenyl)-5-pyridin-3-yl-benzothiazol-2-yl]-urea]	0.25 to 1 (≈ 0.618 to 2.47 µM)
CCNC(=O)Nc1nc2cc(-c3cncc(OC)c3)cc(-c3cccnc3)c2s1 [Example 31, 1-Ethyl-3-[5-(5-methoxy-pyridin-3-yl)-7-pyridin-3-yl-benzothiazol-2-yl]-urea]	0.25 to 1 (≈ 0.617 to 2.47 µM)
CCNC(=O)Nc1nc2cc(-c3ccc(NC(C)=O)nc3)cc(-c3nccc4cc[nH]c34)c2s1 [Example 137, N-{5-[2-(3-Ethyl-ureido)-7-(1H-pyrrolo[2,3-c]pyridin-7-yl)-benzothiazol-5-yl]-pyridin-2-yl}-acetamide]	0.25 to 1 (≈ 0.53 to 2.12 µM)
CCNC(=O)Nc1nc2cc(-c3cccnc3)cc(-c3cccc(OC)c3)c2s1 [Example 86, 1-Ethyl-3-[7-(3-methoxy-phenyl)-5-pyridin-3-yl-benzothiazol-2-yl]-urea]	0.25 to 1 (≈ 0.618 to 2.47 µM)
CCNC(=O)Nc1nc2cc(-c3cncnc3)cc(-c3cccnc3)c2s1 [Example 13, 1-Ethyl-3-(7-pyridin-3-yl-5-pyrimidin-5-yl-benzothiazol-2-yl)-urea]	0.25 to 1 (≈ 0.664 to 2.66 µM)
CCNC(=O)Nc1nc2cc(-c3cccnc3)cc(-c3cccc(N)n3)c2s1 [Example 125, 1-[7-(6-Amino-pyridin-2-yl)-5-pyridin-3-yl-benzothiazol-2-yl]-3-ethyl-urea]	< 0.25
CCNC(=O)Nc1nc2cc(-c3cccnc3)cc(-c3cc(C(N)=O)ccn3)c2s1 [Example 108, 2-[2-(3-Ethyl-ureido)-5-pyridin-3-yl-benzothiazol-7-yl]-isonicotinamide]	0.25 to 1 (≈ 0.597 to 2.39 µM)
CCNC(=O)Nc1nc2cc(-c3cncnc3)cc(-c3cncnc3)c2s1 [Example 147, 1-(5,7-Di-pyrimidin-5-yl-benzothiazol-2-yl)-3-ethyl-urea]	2 to 16 (≈ 5.3 to 42.4 µM)
CCNC(=O)Nc1nc2cc(-c3cccnc3)cc(-c3nc4ccccc4s3)c2s1 [Example 117, 1-Ethyl-3-(5′-pyridin-3-yl-[2,7′]bibenzothiazolyl-2′-yl)-urea]	< 0.25
CCNC(=O)Nc1nc2cc(-c3ccc(CN4CCOCC4)cc3)cc(-c3cccnc3)c2s1 [Example 21, 1-Ethyl-3-[5-(4-morpholin-4-ylmethyl-phenyl)-7-pyridin-3-yl-benzothiazol-2-yl]-urea]	2 to 16 (≈ 4.22 to 33.8 µM)
CCNC(=O)Nc1nc2cc(-c3cnccn3)cc(-c3cnccn3)c2s1 [Example 10, 1-(5,7-Di-pyrazin-2-yl-benzothiazol-2-yl)-3-ethyl-urea]	< 0.25
CCNC(=O)Nc1nc2cc(-c3cccnc3)cc(-c3ccccc3)c2s1 [Example 78, 1-Ethyl-3-(7-phenyl-5-pyridin-3-yl-benzothiazol-2-yl)-urea]	0.25 to 1 (≈ 0.668 to 2.67 µM)
CCNC(=O)Nc1nc2cc(-c3cccnc3)cc(-c3ccc(C(N)=O)cn3)c2s1 [Example 98, 6-[2-(3-Ethyl-ureido)-5-pyridin-3-yl-benzothiazol-7-yl]-nicotinamide]	0.25 to 1 (≈ 0.597 to 2.39 µM)
CCNC(=O)Nc1nc2cc(-c3cccnc3)cc(-c3ncco3)c2s1 [Example 165, 1-Ethyl-3-(7-oxazol-2-yl-5-pyridin-3-yl-benzothiazol-2-yl)-urea]	0.25 to 1 (≈ 0.684 to 2.74 µM)

same assay, conditions: Enterococcus faecalis, ATCC29212; ATCC 29212; Table 5; read-out: MIC against Enterococcus faecalis (Activity)

Structure (SMILES)	MIC [mg/L]
CCNC(=O)Nc1nc2cc(-c3cnccn3)nc(-c3cnccn3)c2s1 [Example 181, 1-(4,6-di(pyrazin-2-yl)thiazolo[5,4-c]pyridin-2-yl)-3-ethylurea]	0.25 to 1 (≈ 0.661 to 2.64 µM)
